# Several values for one entry are separate records, joined by “and”; a condition that tells them apart may be missing. Identical values can stand only once. Marks after values point to notes of the source that are not given here.
# What was measured:
# PON1 in plasma = experiment: PON1-catalyzed detoxification of CPO to TCPy in individual human plasma (pathway 4); assay type: in vitro ADME; conditions: for CE / Scaled CE / Vmax / Vmax (app) / Scaled Vmax: CPO to TCPy; for Scaled Vmax: Eq 7
# Procedure: After 1 min preincubation in a shaking 37 °C water bath, 1 µl of individual HP was added into the incubation system. Control incubations were performed by replacing plasma with the same amount of 50 mM Tris–HCl (pH 7.4). The total volume of the incubation mixtures was 200 µl. The incubation lasted for 1.5 min at 37 °C and was terminated by addition of 200 µl ice cold ACN and subsquently put on ice. Samples were subsequently centrifuged at 16,000 g (4 ℃) for 5 min and analyzed by UPLC-PDA. […]
# In pathway 4, the in vivo VmaxHP (µmol/h) was extrapolated from its corresponding mean of the apparent VmaxHP(app) (nmol/min/ml plasma) of 25 individuals HP using Eq. 7:7 VmaxHP=VmaxHP(app)×60×1000×VB×0.55/1000,
# [1] = test system: paraoxonase1 (PON1) in liver; conditions: Pathway 3 (CPO to TCPy in liver); pooled HLMs; ref Zhao et al. ([2019]); cited from earlier work
# [2] = PBK modelling with Monte Carlo simulation (Supersome-based and HLM-based); set-up: species or system human; conditions: oral 0.5 mg/kg bw CPF, in vivo data Nolan et al. [1984]
# Description: Compared to the PBK model of Zhao et al. ([2019]), only the fractional absorption was changed to 0.462, which is the mean value of reported fa values from Timchalk et al. ([2002]) (fa = 0.224) and Nolan et al. ([1984]) (fa = 0.7), while for the other model parameters (non-kinetic), the mean values as reported in Zhao et al. ([2019]) were used.
# Compared to the model of Zhao et al. ([2019]), in the Supersome™-based PBK model approach, the kinetic parameters of pathway 1 and pathway 2 were replaced from HLM-derived values to Supersome™-derived values, while the kinetic parameters of pathway 3 were kept the same. For pathway 4, instead of using the reported kinetic parameters from Mosquin et al. ([2009]), the calculated mean values of kinetic parameters obtained based on 25 individual HP samples derived by the present study were used. […]
# The performance of the Supersome™-based PBK model and the HLM-based PBK model (biphasic) were evaluated by comparing their predicted time-dependent TCPy and CPF blood concentrations including the maximum total (bound and unbound) blood concentration (Cmax) or time-dependent blood concentration, and the cumulative time-dependent urinary TCPy excretion with corresponding available in vivo data (Drevenkar et al. [1993]; Nolan et al. [1984]; Timchalk et al. [2002]) upon similar dosing regimens or estimated dose level. […]
compound,measurement,setting,value
"CCOP(=O)(OCC)Oc1nc(Cl)c(Cl)cc1Cl [CPO, chlorpyrifos-oxon]",difference between the highest and the lowest CE,PON1 in plasma; CPO detoxification in plasma of 25 individuals,around 2.6 fold
same,CE,PON1 in plasma; plasma individual 1 (64),4.1 ml/min/ml plasma
same,Scaled CE,PON1 in plasma; plasma individual 1 (64),750.1 L/h
same,Vmax,PON1 in plasma; plasma individual 1 (64),1596 nmol/min/ml plasma
same,Vmax (app),PON1 in plasma; plasma individual 1 (64),21.78 nmol/min/mg plasma protein
same,Scaled Vmax,PON1 in plasma; plasma individual 1 (64),291247 µmol/h
same,CE,PON1 in plasma; plasma individual 2 (65),4.0 ml/min/ml plasma
same,Scaled CE,PON1 in plasma; plasma individual 2 (65),724.7 L/h
same,Vmax,PON1 in plasma; plasma individual 2 (65),1233 nmol/min/ml plasma
same,Vmax (app),PON1 in plasma; plasma individual 2 (65),17.32 nmol/min/mg plasma protein
same,Scaled Vmax,PON1 in plasma; plasma individual 2 (65),224952 µmol/h
same,CE,PON1 in plasma; plasma individual 3 (56),6.4 ml/min/ml plasma
same,Scaled CE,PON1 in plasma; plasma individual 3 (56),1172.4 L/h
same,Vmax,PON1 in plasma; plasma individual 3 (56),2439 nmol/min/ml plasma
same,Vmax (app),PON1 in plasma; plasma individual 3 (56),32.15 nmol/min/mg plasma protein
same,Scaled Vmax,PON1 in plasma; plasma individual 3 (56),445176 µmol/h
same,CE,PON1 in plasma; plasma individual 4 (52),5.0 ml/min/ml plasma
same,Scaled CE,PON1 in plasma; plasma individual 4 (52),915.9 L/h
same,Vmax,PON1 in plasma; plasma individual 4 (52),1591 nmol/min/ml plasma
same,Vmax (app),PON1 in plasma; plasma individual 4 (52),22.39 nmol/min/mg plasma protein
same,Scaled Vmax,PON1 in plasma; plasma individual 4 (52),290427 µmol/h
same,CE,PON1 in plasma; plasma individual 5 (51),5.2 ml/min/ml plasma
same,Scaled CE,PON1 in plasma; plasma individual 5 (51),939.9 L/h
same,Vmax,PON1 in plasma; plasma individual 5 (51),3284 nmol/min/ml plasma
same,Vmax (app),PON1 in plasma; plasma individual 5 (51),45.36 nmol/min/mg plasma protein
same,Scaled Vmax,PON1 in plasma; plasma individual 5 (51),599306 µmol/h
same,CE,PON1 in plasma; plasma individual 6 (57),5.7 ml/min/ml plasma
same,Scaled CE,PON1 in plasma; plasma individual 6 (57),1047.5 L/h
same,Vmax,PON1 in plasma; plasma individual 6 (57),1878 nmol/min/ml plasma
same,Vmax (app),PON1 in plasma; plasma individual 6 (57),23.22 nmol/min/mg plasma protein
same,Scaled Vmax,PON1 in plasma; plasma individual 6 (57),342626 µmol/h
same,CE,PON1 in plasma; plasma individual 7,7.9 ml/min/ml plasma
same,Scaled CE,PON1 in plasma; plasma individual 7,1441.5 L/h
same,Vmax,PON1 in plasma; plasma individual 7,1203 nmol/min/ml plasma
same,Vmax (app),PON1 in plasma; plasma individual 7,14.99 nmol/min/mg plasma protein
same,Scaled Vmax,PON1 in plasma; plasma individual 7,219543 µmol/h
same,CE,PON1 in plasma; plasma individual 8,7.3 ml/min/ml plasma
same,Scaled CE,PON1 in plasma; plasma individual 8,1332.3 L/h
same,Vmax,PON1 in plasma; plasma individual 8,1663 nmol/min/ml plasma
same,Vmax (app),PON1 in plasma; plasma individual 8,21.31 nmol/min/mg plasma protein
same,Scaled Vmax,PON1 in plasma; plasma individual 8,303506 µmol/h
same,CE,PON1 in plasma; plasma individual 9,7.6 ml/min/ml plasma
same,Scaled CE,PON1 in plasma; plasma individual 9,1391.7 L/h
same,Vmax,PON1 in plasma; plasma individual 9,2157 nmol/min/ml plasma
same,Vmax (app),PON1 in plasma; plasma individual 9,27.46 nmol/min/mg plasma protein
same,Scaled Vmax,PON1 in plasma; plasma individual 9,393583 µmol/h
same,CE,PON1 in plasma; plasma individual 10,9.2 ml/min/ml plasma
same,Scaled CE,PON1 in plasma; plasma individual 10,1671.6 L/h
same,Vmax,PON1 in plasma; plasma individual 10,2370 nmol/min/ml plasma
same,Vmax (app),PON1 in plasma; plasma individual 10,28.9 nmol/min/mg plasma protein
same,CE,PON1 in plasma; plasma individual 11,6.4 ml/min/ml plasma
same,Scaled CE,PON1 in plasma; plasma individual 11,1168.7 L/h
same,Vmax,PON1 in plasma; plasma individual 11,1314 nmol/min/ml plasma
same,Vmax (app),PON1 in plasma; plasma individual 11,17.42 nmol/min/mg plasma protein
same,Scaled Vmax,PON1 in plasma; plasma individual 11,239710 µmol/h
same,CE,PON1 in plasma; plasma individual 12,8.2 ml/min/ml plasma
same,Scaled CE,PON1 in plasma; plasma individual 12,1500.5 L/h
same,Vmax,PON1 in plasma; plasma individual 12,2461 nmol/min/ml plasma
same,Vmax (app),PON1 in plasma; plasma individual 12,26.75 nmol/min/mg plasma protein
same,Scaled Vmax,PON1 in plasma; plasma individual 12,449105 µmol/h
same,CE,PON1 in plasma; plasma individual 13,6.6 ml/min/ml plasma
same,Scaled CE,PON1 in plasma; plasma individual 13,1211.5 L/h
same,Vmax,PON1 in plasma; plasma individual 13,1498 nmol/min/ml plasma
same,Vmax (app),PON1 in plasma; plasma individual 13,20.58 nmol/min/mg plasma protein
same,Scaled Vmax,PON1 in plasma; plasma individual 13,273437 µmol/h
same,CE,PON1 in plasma; plasma individual 14,5.8 ml/min/ml plasma
same,Scaled CE,PON1 in plasma; plasma individual 14,1053.7 L/h
same,Vmax,PON1 in plasma; plasma individual 14,2064 nmol/min/ml plasma
same,Vmax (app),PON1 in plasma; plasma individual 14,28.36 nmol/min/mg plasma protein
same,Scaled Vmax,PON1 in plasma; plasma individual 14,376692 µmol/h
same,CE,PON1 in plasma; plasma individual 15,9.8 ml/min/ml plasma
same,Scaled CE,PON1 in plasma; plasma individual 15,1793.2 L/h
same,Vmax,PON1 in plasma; plasma individual 15,1840 nmol/min/ml plasma
same,Vmax (app),PON1 in plasma; plasma individual 15,24.79 nmol/min/mg plasma protein
same,Scaled Vmax,PON1 in plasma; plasma individual 15,335867 µmol/h
same,CE,PON1 in plasma; plasma individual 16,3.7 ml/min/ml plasma
same,Scaled CE,PON1 in plasma; plasma individual 16,671.6 L/h
same,Vmax,PON1 in plasma; plasma individual 16,912 nmol/min/ml plasma
same,Vmax (app),PON1 in plasma; plasma individual 16,11.28 nmol/min/mg plasma protein
same,Scaled Vmax,PON1 in plasma; plasma individual 16,166366 µmol/h
same,CE,PON1 in plasma; plasma individual 17,8.1 ml/min/ml plasma
same,Scaled CE,PON1 in plasma; plasma individual 17,1480.1 L/h
same,Vmax,PON1 in plasma; plasma individual 17,2287 nmol/min/ml plasma
same,Vmax (app),PON1 in plasma; plasma individual 17,32.03 nmol/min/mg plasma protein
same,Scaled Vmax,PON1 in plasma; plasma individual 17,417377 µmol/h
same,CE,PON1 in plasma; plasma individual 18,5.6 ml/min/ml plasma
same,Scaled CE,PON1 in plasma; plasma individual 18,1029.2 L/h
same,Vmax,PON1 in plasma; plasma individual 18,1132 nmol/min/ml plasma
same,Vmax (app),PON1 in plasma; plasma individual 18,15.18 nmol/min/mg plasma protein
same,Scaled Vmax,PON1 in plasma; plasma individual 18,206569 µmol/h
same,CE,PON1 in plasma; plasma individual 19 (48),5.3 ml/min/ml plasma
same,Scaled CE,PON1 in plasma; plasma individual 19 (48),971.2 L/h
same,Vmax,PON1 in plasma; plasma individual 19 (48),1329 nmol/min/ml plasma
same,Vmax (app),PON1 in plasma; plasma individual 19 (48),18.21 nmol/min/mg plasma protein
same,Scaled Vmax,PON1 in plasma; plasma individual 19 (48),242612 µmol/h
same,CE,PON1 in plasma; plasma individual 20 (49),6.9 ml/min/ml plasma
same,Scaled CE,PON1 in plasma; plasma individual 20 (49),1252.4 L/h
same,Vmax,PON1 in plasma; plasma individual 20 (49),2111 nmol/min/ml plasma
same,Vmax (app),PON1 in plasma; plasma individual 20 (49),24.85 nmol/min/mg plasma protein
same,Scaled Vmax,PON1 in plasma; plasma individual 20 (49),385226 µmol/h
same,CE,PON1 in plasma; plasma individual 21 (44),6.5 ml/min/ml plasma
same,Scaled CE,PON1 in plasma; plasma individual 21 (44),1181.9 L/h
same,Vmax,PON1 in plasma; plasma individual 21 (44),1835 nmol/min/ml plasma
same,Vmax (app),PON1 in plasma; plasma individual 21 (44),23.05 nmol/min/mg plasma protein
same,Scaled Vmax,PON1 in plasma; plasma individual 21 (44),334943 µmol/h
same,CE,PON1 in plasma; plasma individual 22 (34),7.3 ml/min/ml plasma
same,Scaled CE,PON1 in plasma; plasma individual 22 (34),1325.9 L/h
same,Vmax,PON1 in plasma; plasma individual 22 (34),1726 nmol/min/ml plasma
same,Vmax (app),PON1 in plasma; plasma individual 22 (34),24.05 nmol/min/mg plasma protein
same,Scaled Vmax,PON1 in plasma; plasma individual 22 (34),315041 µmol/h
same,CE,PON1 in plasma; plasma individual 23 (47),5.7 ml/min/ml plasma
same,Scaled CE,PON1 in plasma; plasma individual 23 (47),1044.7 L/h
same,Vmax,PON1 in plasma; plasma individual 23 (47),2141 nmol/min/ml plasma
same,Vmax (app),PON1 in plasma; plasma individual 23 (47),24.05 nmol/min/mg plasma protein
same,Scaled Vmax,PON1 in plasma; plasma individual 23 (47),390628 µmol/h
same,CE,PON1 in plasma; plasma individual 24 (28),8.7 ml/min/ml plasma
same,Scaled CE,PON1 in plasma; plasma individual 24 (28),1595.0 L/h
same,Vmax,PON1 in plasma; plasma individual 24 (28),2357 nmol/min/ml plasma
same,Vmax (app),PON1 in plasma; plasma individual 24 (28),28.44 nmol/min/mg plasma protein
same,Scaled Vmax,PON1 in plasma; plasma individual 24 (28),430169 µmol/h
same,CE,PON1 in plasma; plasma individual 25 (41),7.1 ml/min/ml plasma
same,Scaled CE,PON1 in plasma; plasma individual 25 (41),1293.4 L/h
same,Vmax,PON1 in plasma; plasma individual 25 (41),1676 nmol/min/ml plasma
same,Vmax (app),PON1 in plasma; plasma individual 25 (41),22.13 nmol/min/mg plasma protein
same,Scaled Vmax,PON1 in plasma; plasma individual 25 (41),305884 µmol/h
same,Vmax (mean),"PON1 in plasma; Pathway 4 (CPO to TCPy in plasma), mean of 25 individual HP samples",1844 nmol/min/ml plasma and 1844.000^i nmol/min/ml plasma
same,Km,[1],628 µM
same,Vmax,[1],37.980 ^e nmol/min/mg microsomal protein
"Oc1nc(Cl)c(Cl)cc1Cl [TCPy, 3,5,6-trichloro-2-pyridinol]",predicted blood Cmax versus mean in vivo Cmax,[2]; both PBK models,2.2 fold
same,predicted urinary excretion at 120 h versus in vivo value,[2],0.8 fold
